The values below come from patent publication US11365188B2, “JAK inhibitors” (priority 2018, dated 2022).

The structures appear in SMILES notation.

This experiment deals with JAK1 (Homo sapiens, UniProt P23458). In words: JAK Kinase Assay (JAK1, Caliper EZ Reader, fluoresceinated peptide). It counts as biochemical. The note with it: ATP 76.5 μM; JAK1 10 nM; 120 minutes at room temperature; read-out: JAK1 inhibition. The method, then: JAK Kinase Assay 384-well plates in the left foot butoxy measured progress. The final assay volume was 25 μL, 250 nL 100× compounds, 10 μL enzyme mix and 15 μL substrate mix (fluoresceinated peptide and ATP) in assay buffer (20 mM HEPES (pH 7.5), 10 mM MgCl2, […], 0.5 mM EGTA and 2 mM DTT) prepared as test compound. By mixing the JAK1 with substrates and test compounds to start the reaction. There action mixture was incubated for 120 minutes at room temperature, then added 30 μL stop buffer for each sample to terminate the reaction with 50 mM EDTA. After termination of the kinase reaction, the proportion of phosphorylated product was determined as a fraction of total peptide substrate using Caliper EZ Reader II. Inhibition data were calculated by comparison with 100% of the reaction mixture without enzyme inhibition and vehicle-only reaction mixture billion % inhibition compared. The final concentration of reagents in the assays is: ATP, 76.5 μM; JAK1 fluorescent peptide (5-FAM-EEPLYWSFPAKKK-CONH2), 3 μM; JAK1, 10 nM, and DMSO, 1%. Dose response curve were generated to determine the concentration required for IC50 of JAK activity.
JAK1, sequence (P23458 whole entry, species assumed): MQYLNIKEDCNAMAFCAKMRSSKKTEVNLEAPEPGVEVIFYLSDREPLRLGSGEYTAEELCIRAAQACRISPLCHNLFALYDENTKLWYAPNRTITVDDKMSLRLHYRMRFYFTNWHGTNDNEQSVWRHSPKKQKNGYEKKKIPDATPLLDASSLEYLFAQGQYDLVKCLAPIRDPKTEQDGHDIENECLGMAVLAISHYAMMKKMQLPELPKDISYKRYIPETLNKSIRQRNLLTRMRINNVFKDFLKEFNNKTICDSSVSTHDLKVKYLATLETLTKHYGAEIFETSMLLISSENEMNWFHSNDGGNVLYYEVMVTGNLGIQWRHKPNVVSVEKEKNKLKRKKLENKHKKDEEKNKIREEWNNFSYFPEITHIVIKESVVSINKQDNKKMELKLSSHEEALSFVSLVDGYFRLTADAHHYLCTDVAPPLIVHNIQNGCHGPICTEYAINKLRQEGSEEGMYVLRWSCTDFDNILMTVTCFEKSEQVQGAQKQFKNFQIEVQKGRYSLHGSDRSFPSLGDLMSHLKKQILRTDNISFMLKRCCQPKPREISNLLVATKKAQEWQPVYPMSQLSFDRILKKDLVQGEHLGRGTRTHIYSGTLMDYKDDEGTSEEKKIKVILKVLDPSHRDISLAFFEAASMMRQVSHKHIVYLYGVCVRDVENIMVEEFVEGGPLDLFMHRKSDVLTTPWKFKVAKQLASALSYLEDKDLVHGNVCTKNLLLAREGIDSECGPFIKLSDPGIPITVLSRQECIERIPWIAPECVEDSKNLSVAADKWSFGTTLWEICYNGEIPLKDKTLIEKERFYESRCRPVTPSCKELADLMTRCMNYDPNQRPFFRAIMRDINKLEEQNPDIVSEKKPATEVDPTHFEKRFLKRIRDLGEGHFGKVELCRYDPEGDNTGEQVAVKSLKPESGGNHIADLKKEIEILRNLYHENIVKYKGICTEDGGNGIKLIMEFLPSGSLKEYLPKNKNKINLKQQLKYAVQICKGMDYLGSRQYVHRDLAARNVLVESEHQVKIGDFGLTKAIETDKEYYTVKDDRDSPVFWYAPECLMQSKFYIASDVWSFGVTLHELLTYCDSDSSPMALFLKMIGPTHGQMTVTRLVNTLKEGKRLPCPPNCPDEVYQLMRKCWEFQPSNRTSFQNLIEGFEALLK
`CCN(CC)S(=O)(=O)N1CCC2(CCC(N(C)c3ncnc4[nH]ccc34)CC2)CC1` [Compound 111, N,N-diethyl-9-(methyl(7H-pyrrolo[2,3-d]pyrimidin-4-yl)amino)-3-azaspiro[5.5]undecane-3-sulfonamide]: the IC50 is at least 10 µM. With `CN(c1ncnc2[nH]ccc12)C1CCC2(CC1)CCN(C(=O)c1ccc(S(N)(=O)=O)cc1)CC2` [Compound 112, 4-(9-(methyl(7H-pyrrolo[2,3-d]pyrimidin-4-yl)amino)-3-azaspiro[5.5]undecane-3-carbonyl)benzenesulfonamide], the IC50 fell in the range of 0.01 to 0.1 µM.

Take `CN(c1ncnc2[nH]ccc12)C1CCC2(CC1)CCN(C(=O)CCS(N)(=O)=O)CC2` [Compound 113, 3-(9-(methyl(7H-pyrrolo[2,3-d]pyrimidin-4-yl)amino)-3-azaspiro[5.5]undecan-3-yl)-3-oxopropane-1-sulfonamide]: the IC50 fell in the range of 1 to 10 µM. For the compound `CN(c1ncnc2[nH]ccc12)C1CCC2(CC1)CCN(C(=O)COc1cc(F)cc(C#N)c1)CC2` [Compound 114, 3-fluoro-5-(2-(9-(methyl(7H-pyrrolo[2,3-d]pyrimidin-4-yl)amino)-3-azaspiro[5.5]undecan-3-yl)-2-oxoethoxy)benzonitrile], the IC50 is at most 0.01 µM. In the case of `CN(c1ncnc2[nH]ccc12)C1CCC2(CC1)CCN(C(=O)COc1ccc(C#N)cc1)CC2` [Compound 115, 4-(2-(9-(methyl(7H-pyrrolo[2,3-d]pyrimidin-4-yl)amino)-3-azaspiro[5.5]undecan-3-yl)-2-oxoethoxy)benzonitrile], the IC50 was at most 0.01 µM.

For the compound `CN(c1ncnc2[nH]ccc12)C1CCC2(CC1)CCN(C(=O)COc1cccc(C#N)c1)CC2` [Compound 116, 3-(2-(9-(methyl(7H-pyrrolo[2,3-d]pyrimidin-4-yl)amino)-3-azaspiro[5.5]undecan-3-yl)-2-oxoethoxy)benzonitrile], the IC50 fell in the range of 0.01 to 0.1 µM. On to `CN(c1ncnc2[nH]ccc12)C1CCC2(CC1)CCN(C(=O)COc1ccc(C#N)c(F)c1)CC2` [Compound 117, 2-fluoro-4-(2-(9-(methyl(7H-pyrrolo[2,3-d]pyrimidin-4-yl)amino)-3-azaspiro[5.5]undecan-3-yl)-2-oxoethoxy)benzonitrile], for which the IC50 was in the range of 0.01 to 0.1 µM.

For the compound `CN(c1ncnc2[nH]ccc12)C1CCC2(CC1)CCN(C(=O)COc1ccc(C#N)c(F)c1F)CC2` [Compound 118, 2,3-difluoro-4-(2-(9-(methyl(7H-pyrrolo[2,3-d]pyrimidin-4-yl)amino)-3-azaspiro[5.5]undecan-3-yl)-2-oxoethoxy)benzonitrile], the IC50 is 0.01 to 0.1 µM. For the compound `COc1ccc(NC(=O)N2CCC3(CCC(N(C)c4ncnc5[nH]ccc45)CC3)CC2)cc1` [Compound 119, N-(4-methoxyphenyl)-9-(methyl(7H-pyrrolo[2,3-d]pyrimidin-4-yl)amino)-3-azaspiro[5.5]undecane-3-carboxamide], the IC50 was 0.01 to 0.1 µM.

On to `COc1cccc(NC(=O)N2CCC3(CCC(N(C)c4ncnc5[nH]ccc45)CC3)CC2)c1` [Compound 120, N-(3-methoxyphenyl)-9-(methyl(7H-pyrrolo[2,3-d]pyrimidin-4-yl)amino)-3-azaspiro[5.5]undecane-3-carboxamide], for which the IC50 is at most 0.01 µM. For the compound `CN(c1ncnc2[nH]ccc12)C1CCC2(CC1)CCN(C(=O)Nc1ccc(C#N)cc1)CC2` [Compound 121, N-(4-cyanophenyl)-9-(methyl(7H-pyrrolo[2,3-d]pyrimidin-4-yl)amino)-3-azaspiro[5.5]undecane-3-carboxamide], the IC50 was in the range of 0.01 to 0.1 µM.

Turning to `CN(c1ncnc2[nH]ccc12)C1CCC2(CC1)CCN(C(=O)Nc1cccc(C#N)c1)CC2` [Compound 122, N-(3-cyanophenyl)-9-(methyl(7H-pyrrolo[2,3-d]pyrimidin-4-yl)amino)-3-azaspiro[5.5]undecane-3-carboxamide], the IC50 is at most 0.01 µM. For `CN(c1ncnc2[nH]ccc12)C1CCC2(CC1)CCN(C(=O)Nc1cccc(C#N)n1)CC2` [Compound 123, N-(6-cyanopyridin-2-yl)-9-(methyl(7H-pyrrolo[2,3-d]pyrimidin-4-yl)amino)-3-azaspiro[5.5]undecane-3-carboxamide] the value was at most 0.01 µM; for `COc1cccc(NC(=O)N2CCC3(CCC(N(C)c4ncnc5[nH]ccc45)CC3)CC2)n1` [Compound 124, N-(6-methoxpyridin-2-yl)-9-(methyl(7H-pyrrolo[2,3-d]pyrimidin-4-yl)amino)-3-azaspiro[5.5]undecane-3-carboxamide], 0.01 to 0.1 µM. Consider `CN(c1ncnc2[nH]ccc12)C1CCC2(CC1)CCN(C(=O)Nc1ccc(C#N)cn1)CC2` [Compound 125, N-(5-cyanopyridin-2-yl)-9-(methyl(7H-pyrrolo[2,3-d]pyrimidin-4-yl)amino)-3-azaspiro[5.5]undecane-3-carboxamide], for which the IC50 lay in the range of 1 to 10 µM. For `Cc1cnc(NC(=O)N2CCC3(CCC(N(C)c4ncnc5[nH]ccc45)CC3)CC2)s1` [Compound 126, 9-(methyl(7H-pyrrolo[2,3-d]pyrimidin-4-yl)amino)-N-(5-methylthiazol-2-yl)-3-azaspiro[5.5]undecane-3-carboxamide] the value was 0.1 to 1 µM; for `CN(c1ncnc2[nH]ccc12)C1CCC2(CC1)CCN(C(=O)Nc1ccn(C)n1)CC2` [Compound 127, 9-(methyl(7H-pyrrolo[2,3-d]pyrimidin-4-yl)amino)-N-(1-methyl-1H-pyrazol-3-yl)-3-azaspiro[5.5]undecane-3-carboxamide], 0.1 to 1 µM; for `Cc1cnc(NC(=O)N2CCC3(CCC(N(C)c4ncnc5[nH]ccc45)CC3)CC2)cn1` [Compound 128, 9-(methyl(7H-pyrrolo[2,3-d]pyrimidin-4-yl)amino)-N-(5-methylpyrazin-2-yl)-3-azaspiro[5.5]undecane-3-carboxamide], 1 to 10 µM. Take `COc1cnc(NC(=O)N2CCC3(CCC(N(C)c4ncnc5[nH]ccc45)CC3)CC2)cn1` [Compound 129, N-(5-methoxypyrazin-2-yl)-9-(methyl(7H-pyrrolo[2,3-d]pyrimidin-4-yl)amino)-3-azaspiro[5.5]undecane-3-carboxamide]: the IC50 lay within 0.01 to 0.1 µM.

`COc1ccc(NC(=O)N2CCC3(CCC(N(C)c4ncnc5[nH]ccc45)CC3)CC2)nc1` [Compound 130, N-(5-methoxypyridin-2-yl)-9-(methyl(7H-pyrrolo[2,3-d]pyrimidin-4-yl)amino)-3-azaspiro[5.5]undecane-3-carboxamide]: the IC50 is 0.01 to 0.1 µM. For the compound `CN(c1ncnc2[nH]ccc12)C1CCC2(CC1)CCN(C(=O)Nc1ncc(F)s1)CC2` [Compound 131, N-(5-fluorothiazol-2-yl)-9-(methyl(7H-pyrrolo[2,3-d]pyrimidin-4-yl)amino)-3-azaspiro[5.5]undecane-3-carboxamide], the IC50 was in the range of 0.01 to 0.1 µM.

As for `CN(c1ncnc2[nH]ccc12)C1CCC2(CC1)CCN(C(=O)Nc1ncc(Cl)s1)CC2` [Compound 132, N-(5-chlorothiazol-2-yl)-9-(methyl(7H-pyrrolo[2,3-d]pyrimidin-4-yl)amino)-3-azaspiro[5.5]undecane-3-carboxamide], the IC50 fell in the range of 0.1 to 1 µM. On to `CN(c1ncnc2[nH]ccc12)C1CCC2(CC1)CCN(C(=O)Nc1ncc(C#N)s1)CC2` [Compound 133, N-(5-cyanothiazol-2-yl)-9-(methyl(7H-pyrrolo[2,3-d]pyrimidin-4-yl)amino)-3-azaspiro[5.5]undecane-3-carboxamide], for which the IC50 was at most 0.01 µM.

With `CN(c1ncnc2[nH]ccc12)C1CCC2(CC1)CCN(C(=O)Nc1nccs1)CC2` [Compound 134, 9-(methyl(7H-pyrrolo[2,3-d]pyrimidin-4-yl)amino)-N-(thiazol-2-yl)-3-azaspiro[5.5]undecane-3-carboxamide], the IC50 is at most 0.01 µM.
